The source of these data is ChEMBL document CHEMBL1133277, “Effect of C2/C3-endo unsaturation on the cytotoxicity and DNA-binding reactivity of pyrrolo[2,1-c][1,4]benzodiazepines” (2000).

The subject of assay [1] is Nucleic Acid. As to the kind of experiment: Change in temperature (thermal denaturation) was determined from calf thymus DNA at 37 degree Celsius for 18 hours. Format: functional. The settings on record: Bos taurus.
For assay [2], the system named is Nucleic Acid. As to the kind of experiment: Change in temperature (thermal denaturation) was determined from calf thymus DNA at 37 degree Celsius for 4 hours. Format: functional. To be noted: Bos taurus.
The subject of assay [3] is Nucleic Acid. In words: Change in temperature (thermal denaturation) was determined from calf thymus DNA at 37 degree Celsius for 0 hours. Type of assay: functional. To be noted: Bos taurus.
Assay [4] relates to A2780. In words: In vitro cytotoxicity of compound was determined against A2780 cell lines (cisplatin resistant) at 37 degree C after 96 hr. Format: functional, Homo sapiens.
The nature of assay [5]: Resistance factor of compound was determined from cisplatin resistant CH1 cell lines to that of CH1 cell lines. Format: functional.
In another assay the test system is SK-OV-3. As to the kind of experiment: In vitro cytotoxicity of compound was determined against SKOV-3 cell lines at 37 degree C after 96 hr. Type of assay: functional, Homo sapiens.
Assay [6] in a line: Resistance factor of compound was determined from cisplatin resistant A2780 cell lines to that of A2780 cell lines. Type of assay: functional.
Assay [7] deals with CH1. As to the kind of experiment: In vitro cytotoxicity of compound was determined against CH1 cell lines at 37 degree C after 96 hr. Format: functional, Homo sapiens.
The subject of assay [8] is A2780. In words: In vitro cytotoxicity of compound was determined against A2780 cell lines at 37 degree C after 96 hr. Type of assay: functional, Homo sapiens.
The test system of assay [9] is CH1. As to the kind of experiment: In vitro cytotoxicity of compound was determined against CH1 (cisplatin resistant) cell lines at 37 degree C after 96 hr. Format: functional, Homo sapiens.
Assay [10] has as its system Nucleic Acid. As to the kind of experiment: Change in temperature (thermal denaturation) was determined from calf thymus DNA at 37 degree Celsius for 36 hours. Format: functional. The settings on record: Bos taurus.

Turning to `COc1cc2c(cc1OCc1ccccc1)N=C[C@@H]1CC(CCO)=CN1C2=O`, the results for the thermal shift (ΔTm) in the assay on Nucleic Acid [1], in the assay on Nucleic Acid [2] and in the assay with Nucleic Acid [3] were 5.6 °C, 4.61 °C and 3.98 °C, respectively. Besides, the Cytotoxicity came to 0.105 µM in the assay on A2780 [4]; 0.105 µM in the assay on SK-OV-3; 0.09 µM in the assay with CH1 [7]; 0.07 µM in the assay with A2780 [8]; 0.037 µM with CH1 [9]. Moreover, the Resistance factor in assay [5] was 0.4; in assay [6], 1.5.
As for `COC(=O)CC1=CN2C(=O)c3cc(OC)c(OC)cc3N=C[C@@H]2C1`, the ΔTm (commonly the shift of the melting midpoint relative to a reference) amounted to 4.63 °C in the assay with Nucleic Acid [2], 3.41 °C in the assay with Nucleic Acid [3] and 6.65 °C in the assay with Nucleic Acid [10]. Further, the Cytotoxicity was found to be 0.46 µM with A2780 [4]; 0.45 µM with SK-OV-3; 0.115 µM with CH1 [7]; 0.36 µM with A2780 [8]; 0.15 µM in the assay on CH1 [9]. The Resistance factor in assay [5] and in assay [6] was 1.3 each time.
`COc1cc2c(cc1OCc1ccccc1)N=C[C@@H]1CC(CC#N)=CN1C2=O`: the thermal shift (ΔTm) with Nucleic Acid [1] was determined as 4.31 °C; in the assay on Nucleic Acid [2], 2.31 °C; with Nucleic Acid [3], 1.84 °C. The Cytotoxicity is 0.43 µM in the assay with A2780 [4]; 0.52 µM in the assay on SK-OV-3; 0.105 µM with CH1 [7]; 0.155 µM in the assay on A2780 [8]; 0.27 µM with CH1 [9]. Besides, the Resistance factor in assay [5] was 2.6; in [6] it was 2.8.
On to `COc1cc2c(cc1OCc1ccccc1)N=C[C@@H]1CCCN1C2=O`, for which the ΔTm turned out to be 0.4 °C in the assay on Nucleic Acid [1], 0.4 °C in the assay with Nucleic Acid [2] and 0.2 °C in the assay with Nucleic Acid [3]. The Cytotoxicity in the assay on A2780 [4] was determined as 0.48 µM; in the assay with SK-OV-3, 0.46 µM; with CH1 [7] it was 0.145 µM; in the assay on A2780 [8], 0.17 µM; with CH1 [9], 0.145 µM. Moreover, the Resistance factor is on record as 1 in assay [5] and 2.8 in assay [6].
In the case of `COC(=O)CC1=CN2C(=O)c3cc(OC)c(OCc4ccccc4)cc3N=C[C@@H]2C1`, the figures for the ΔTm in the assay with Nucleic Acid [2], in the assay with Nucleic Acid [3] and in the assay with Nucleic Acid [10] were 3.96 °C, 3.08 °C and 4.97 °C, respectively. Also, the Cytotoxicity in the assay on A2780 [4] is 0.12 µM; in the assay on SK-OV-3, 0.12 µM; with CH1 [7], 0.016 µM; with A2780 [8] it was 0.0145 µM; in the assay with CH1 [9], 0.04 µM. Also, the Resistance factor in [5] came out at 2.5; in [6], 8.3.
On to `COc1cc2c(cc1OCc1ccccc1)N=C[C@@H]1CC(CCOC(C)=O)=CN1C2=O`, for which the results for the ΔTm in the assay on Nucleic Acid [1], in the assay with Nucleic Acid [2] and with Nucleic Acid [3] were 2.53 °C, 2.11 °C and 1.57 °C, respectively. Moreover, the Cytotoxicity in the assay on A2780 [4] amounted to 0.27 µM; with SK-OV-3 it was 0.46 µM; in the assay with CH1 [7], 0.105 µM; in the assay on A2780 [8], 0.1 µM; in the assay on CH1 [9] it was 0.16 µM. For the same compound, the Resistance factor in assay [5] was found to be 1.5; in [6], 2.7.
With `Cc1ccc2c(c1O)N=C[C@@H]1CC(/C=C/C(N)=O)=CN1C2=O`, the shift in melting temperature (ΔTm) in the assay on Nucleic Acid [1] was determined as 13 °C; with Nucleic Acid [2], 11.2 °C; in the assay on Nucleic Acid [3] it was 9.4 °C. In addition, the Cytotoxicity in the assay on A2780 [4] was found to be 0.16 µM; with SK-OV-3, 0.16 µM; in the assay with CH1 [7] it was 0.062 µM; in the assay on A2780 [8] it was 0.155 µM; with CH1 [9], 0.05 µM. Further, the Resistance factor in assay [5] amounted to 0.81; in [6], 1.03.
